Experimental data reported in PMC8857485, “Prostate secretory protein 94 inhibits sterol binding and export by the mammalian CAP protein CRISP2 in a calcium-sensitive manner” (The Journal of Biological Chemistry, 2022).

Legend:
[1] = target: T1, CRISP2–PSP94 heteromeric complex (Homo sapiens, UniProt P16562); experiment: Coimmunoprecipitation of PSP94-FLAG with CRISP2-HA from culture medium; assay type: cell-based, Saccharomyces cerevisiae
T1 construct: expressed in transfected cells; host or cells: Saccharomyces cerevisiae, plasmids pRS416 (CRISP2) and pRS414 (PSP94), ADH1 promoter
Method: To test whether calcium also affects the formation of the heteromeric complex in vivo, we analyzed complex formation by coimmunoprecipitation. Cells expressing CRISP2-HA and PSP94-FLAG were cultivated in the absence or presence of calcium (5 and 10 mM CaCl2), CRISP2-HA was immunoprecipitated from the culture medium, and Western blots were probed for the presence of PSP94-FLAG.
For Coimmunoprecipitation analysis, CRISP2 wildtype and mutant versions were tagged with an HA epitope tag, and wildtype PSP94 and the PSP94^F24G mutant version were fused to a FLAG tag. Yeast strains expressing these proteins were grown overnight and collected by centrifugation. The cell pellet was resuspended in lysis buffer (50 mM Tris-HCl pH 7.5, 100 mM NaCl, 0.1% NP-40, 10% glycerol, protease inhibitor, and 1 mM PMSF), and cells were broken with glass beads in a Precellys homogenizer. The culture medium was concentrated using size-exclusion protein concentrator spin columns (3K MWCO, Pierce, Thermo Scientific). Protein concentration was estimated by Bradford assay (Bio-Rad), and both the cell lysate and concentrated culture medium were incubated overnight at 4 °C with anti-HA magnetic beads (Pierce, Thermo Scientific). […] Samples were denatured for 10 min at 95 °C and analyzed by SDS-PAGE and Western blotting. […]

[2] = system: sterol export by CAP proteins (Pry1, CRISP2, CRISP3); experiment: In vivo sterol export assay ([14C]cholesteryl acetate export) in yeast; assay type: cell-based, Saccharomyces cerevisiae; settings: 10 mM calcium in medium, cells expressing CRISP2 and PSP94
From the text: To test whether expression of PSP94 would affect the function of Pry1 in sterol export, we expressed PSP94 fused to the N-terminal signal sequence from Pry1 (amino acids 1–19) from a constitutive alcohol dehydrogenase promoter (ADH1) to direct the protein into the yeast secretory pathway. This PSP94-containing plasmid was then transformed into heme-deficient yeast cells lacking the sterol deacetylase Say1 (hem1Δ say1Δ). This strain is able to take up radiolabeled [^14C]cholesterol, acetylate it in an alcohol acetyltransferase 2 (Atf2)-dependent pathway, and secrete the resulting radiolabeled cholesteryl acetate back into the culture medium ([29]). […] To test whether expression of PSP94 would affect the synthesis or secretion of Pry1, CRISP2, or CRISP3, we coexpressed FLAG-tagged PSP94 with hemagglutinin (HA)-tagged Pry1, CRISP2, or CRISP3, separated yeast cells from the culture medium, precipitated proteins from both fractions with trichloroacetic acid (TCA), and detected the tagged proteins by Western blotting.
The sterol export assay was performed as described ([29]). […] Extracted radiolabeled lipids were quantified by scintillation counting, and volumes corresponding to 10,000 cpm (counts per minute) were dried. […] TLC plates were then exposed to phosphorimager screens, and radiolabeled lipids were visualized and quantified using a phosphorimager. […]

[3] = target: T2, PSP94 (Homo sapiens, UniProt P08118); experiment: MST binding to PSP94; settings: calcium chloride titration
T2 construct: made in house; host or cells: E. coli BL21
Method: To test whether the interaction between PSP94 and CAP family members affects their sterol binding in vitro, we performed ligand binding assays using a more water-soluble cholesterol derivative, cholesterol sulfate. […] In the presence of an equimolar concentration of PSP94, however, sterol binding by the CAP proteins was blocked (Fig. 3B).
MST experiments were performed to assess protein–protein, protein–lipid, and protein–calcium interactions using a Monolith NT.115 (Nanotemper Technologies). Proteins were labeled using the RED-tris-NTA His tag protein labeling kit. Labeled CAP proteins, 100 nM, were mixed with a serial dilution of unlabeled PSP94, PSP9^F24G, cholesterol sulfate, or calcium chloride, prepared in binding buffer (20 mM Tris pH 7.5, 30 mM NaCl, 0.05% Triton X-100). Samples were loaded into MST standard capillaries, and MST measurements were performed using an 80% laser power setting. The dissociation constant Kd was obtained by plotting the normalized fluorescence (Fnorm) against the logarithm of ligand concentration. Experiments were performed in triplicates, and data were fitted using the Kd model of the MO.Affinity Analysis software (Nanotemper Technologies). For binding inhibition studies, CAP proteins and PSP94 were preincubated for 5 min at 24 °C before performing binding studies with cholesterol sulfate.

[4] = target: T3, CRISP2 (Homo sapiens, UniProt P16562); experiment: MST binding to CRISP2; parameters: species or system mammalian; settings: calcium chloride titration, read-out: Kd, calcium binding by CRISP2
T3 construct: made in house; host or cells: E. coli BL21
T3 sequence (P16562 22-243): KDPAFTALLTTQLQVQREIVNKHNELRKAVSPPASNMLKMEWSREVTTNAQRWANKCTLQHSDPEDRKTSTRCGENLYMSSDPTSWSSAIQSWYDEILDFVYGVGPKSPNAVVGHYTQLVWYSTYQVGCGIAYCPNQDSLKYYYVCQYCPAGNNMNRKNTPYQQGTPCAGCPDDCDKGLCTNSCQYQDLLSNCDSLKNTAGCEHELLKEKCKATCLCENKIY
From the text: To confirm the direct interaction of PSP94 with CRISP3 and to test whether PSP94 would also bind other CAP family members such as yeast Pry1, or CRISP2, we performed in vitro protein binding assay using microscale thermophoresis (MST). Therefore, PSP94 and the CAP family members, Pry1, CRISP2, and CRISP3, were expressed as fusion proteins with a C-terminal polyhistidine tag in Escherichia coli, and the proteins were affinity purified on nickel-NTA agarose beads. The purified CAP proteins were then fluorescently labeled using RED-tris-NTA and incubated with varying concentrations of PSP94. […] PSP94 thus has high binding affinity for all three CAP proteins tested, and it also binds the CAP domain of Pry1 (Pry1^CAP) alone.
DNA encoding proteins of interest were PCR amplified and cloned into NcoI and XhoI restriction sites of pET22b, which contains a PelB signal sequence to direct the secretion of expressed protein into the periplasmic space. Plasmids were transformed into E. coli BL21, and proteins were expressed with a C-terminal polyhistidine tag. Different induction strategies were used: overnight induction with lactose at 24 °C for Pry1, CRISP2, and PSP94 and 6 h of induction with 0.4 mM IPTG at 24 °C for the CAP domain of Pry1. Cells were collected and lysed, and the soluble cell lysate was incubated with nickel-nitrilotriacetic acid beads as per the manufacturer instructions (Qiagen). Beads were washed and loaded onto a Ni^2+-NTA column, and proteins were eluted with a buffer containing 60 mM NaH2PO4, 300 mM NaCl, and 300 mM imidazole, pH 8.0. […] Protein concentration was determined by Lowry assay using the Folin reagent and bovine serum albumin as protein standard.
MST experiments were performed to assess protein–protein, protein–lipid, and protein–calcium interactions using a Monolith NT.115 (Nanotemper Technologies). […] The dissociation constant Kd was obtained by plotting the normalized fluorescence (Fnorm) against the logarithm of ligand concentration. […]

T2 sequence (P08118 21-114): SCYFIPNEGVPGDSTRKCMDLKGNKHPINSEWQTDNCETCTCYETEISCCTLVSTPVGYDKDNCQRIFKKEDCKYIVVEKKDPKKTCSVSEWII

SMILES: [Ca+2] [calcium, calcium chloride]
- complex formation between CRISP2 and PSP94 ([1]; cells grown in 5 mM calcium): reduced
- complex formation between CRISP2 and PSP94 ([1]; cells grown in 10 mM calcium): could no longer be detected
- effect on sterol export by CRISP2 in the presence of PSP94 [2]: restored sterol binding and export by CRISP2
- Kd [3]: 376 ± 1.7 µM
- Kd [4]: 0.052 ± 0.0009 µM
